Assay: xn = mol fraction of the nth substance listed
Conditions: 101 kPa, Liquid

CCn1cc[n+](C)c1.O=S(=O)([O-])C(F)(F)F [1-ethyl-3-methylimidazolium trifluoromethanesulfonate] + CC(C)=O
Conditions | mass density, 278.15 K [kg/m3] | mass density, 288.15 K [kg/m3] | mass density, 298.15 K [kg/m3] | mass density, 308.15 K [kg/m3] | mass density, 318.15 K [kg/m3] | speed of sound, 278.15 K [m/s] | speed of sound, 288.15 K [m/s] | speed of sound, 298.15 K [m/s] | speed of sound, 308.15 K [m/s] | speed of sound, 318.15 K [m/s]
x1 = 0.05 | 887.53 | 876.86 | 866.08 | 855.21 | 844.23 | 1280.3 | 1233.3 | 1191.1 | 1149.9 | 1109.3
x1 = 0.0999 | 953.96 | 943.44 | 932.87 | 922.28 | 911.64 | 1299.7 | 1253.5 | 1214.3 | 1176 | 1138.2
x1 = 0.1501 | 1010.97 | 1000.75 | 990.52 | 980.27 | 969.97 | 1313.5 | 1273.1 | 1236.6 | 1200.8 | 1165.4
x1 = 0.2004 | 1060.17 | 1050.21 | 1040.29 | 1030.37 | 1020.44 | 1327.8 | 1291.8 | 1257.5 | 1223.7 | 1190.4
x1 = 0.2988 | 1138.02 | 1128.31 | 1118.66 | 1109.04 | 1099.45 | 1356.4 | 1324.7 | 1293.5 | 1262.9 | 1232.8
x1 = 0.4007 | 1201.1 | 1191.78 | 1182.49 | 1173.23 | 1164.02 | 1382.4 | 1353 | 1324.3 | 1296.1 | 1268.4
x1 = 0.5006 | 1250.85 | 1241.69 | 1232.59 | 1223.54 | 1214.55 | 1404.5 | 1376.7 | 1349.7 | 1323 | 1297.1
x1 = 0.6007 | 1291.81 | 1282.81 | 1273.89 | 1265.02 | 1256.22 | 1423.5 | 1397.2 | 1371.6 | 1346.5 | 1322
x1 = 0.7014 | 1326.9 | 1318.05 | 1309.28 | 1300.58 | 1291.94 | 1441 | 1415.8 | 1391.3 | 1367.3 | 1343.8
x1 = 0.7998 | 1354.5 | 1345.77 | 1337.12 | 1328.53 | 1320.01 | 1455.6 | 1430.9 | 1407 | 1383.7 | 1361
x1 = 0.8435 | 1365.96 | 1357.29 | 1348.69 | 1340.15 | 1331.68 | 1462.5 | 1437.8 | 1414.3 | 1391.2 | 1368.7
x1 = 0.9006 | 1379.4 | 1370.81 | 1362.28 | 1353.81 | 1345.41 | 1469.4 | 1445.7 | 1422.5 | 1399.9 | 1377.7
x1 = 0.9489 | – | – | – | – | 1356.74 | – | – | – | – | 1384.7
x1 = 0.9501 | 1390.54 | 1382 | 1373.52 | 1365.09 | – | 1475.9 | 1452.1 | 1429.1 | 1406.7 | –

CCn1cc[n+](C)c1.O=S(=O)([O-])C(F)(F)F [1-ethyl-3-methylimidazolium trifluoromethanesulfonate] + CCOC(C)=O
Conditions | mass density [kg/m3] | speed of sound [m/s]
278.15 K, x1 = 0.0501 | 967.32 | 1238
278.15 K, x1 = 0.1003 | 1011.38 | 1249
278.15 K, x1 = 0.1502 | 1051.15 | 1263.8
278.15 K, x1 = 0.2004 | 1087.57 | 1280.5
278.15 K, x1 = 0.3002 | 1150.92 | 1313.9
278.15 K, x1 = 0.4002 | 1203.84 | 1343.7
278.15 K, x1 = 0.5002 | 1248.95 | 1371.2
278.15 K, x1 = 0.6009 | 1288.17 | 1397
278.15 K, x1 = 0.6999 | 1321.89 | 1420.5
278.15 K, x1 = 0.8006 | 1351.91 | 1442.8
278.15 K, x1 = 0.8492 | 1365.02 | 1453
278.15 K, x1 = 0.9008 | 1378.11 | 1463.2
278.15 K, x1 = 0.9501 | 1389.89 | 1472.6
288.15 K, x1 = 0.0501 | 955.66 | 1193.7
288.15 K, x1 = 0.1003 | 999.99 | 1206.1
288.15 K, x1 = 0.1502 | 1040.09 | 1222.8
288.15 K, x1 = 0.2004 | 1076.84 | 1241.5
288.15 K, x1 = 0.3002 | 1140.7 | 1278.8
288.15 K, x1 = 0.4002 | 1194.03 | 1311.7
288.15 K, x1 = 0.5002 | 1239.47 | 1341.6
288.15 K, x1 = 0.6009 | 1278.96 | 1369.4
288.15 K, x1 = 0.6999 | 1312.9 | 1394
288.15 K, x1 = 0.8006 | 1343.1 | 1417.9
288.15 K, x1 = 0.8492 | 1356.29 | 1428.6
288.15 K, x1 = 0.9008 | 1369.47 | 1439.3
288.15 K, x1 = 0.9501 | 1381.32 | 1449
298.15 K, x1 = 0.0501 | 943.87 | 1150
298.15 K, x1 = 0.1003 | 988.52 | 1163.9
298.15 K, x1 = 0.1502 | 1028.97 | 1182.5
298.15 K, x1 = 0.2004 | 1066.05 | 1203
298.15 K, x1 = 0.3002 | 1130.49 | 1244.2
298.15 K, x1 = 0.4002 | 1184.26 | 1280.4
298.15 K, x1 = 0.5002 | 1230.04 | 1312.7
298.15 K, x1 = 0.6009 | 1269.8 | 1342.4
298.15 K, x1 = 0.6999 | 1303.96 | 1369
298.15 K, x1 = 0.8006 | 1334.35 | 1393.7
298.15 K, x1 = 0.8492 | 1347.63 | 1404.8
298.15 K, x1 = 0.9008 | 1360.89 | 1416
298.15 K, x1 = 0.9501 | 1372.81 | 1426
308.15 K, x1 = 0.0501 | 931.96 | 1106.8
308.15 K, x1 = 0.1003 | 976.94 | 1121.8
308.15 K, x1 = 0.1502 | 1017.77 | 1142.2
308.15 K, x1 = 0.2004 | 1055.22 | 1165.1
308.15 K, x1 = 0.3002 | 1120.28 | 1210.2
308.15 K, x1 = 0.4002 | 1174.52 | 1249.5
308.15 K, x1 = 0.5002 | 1220.67 | 1284.4
308.15 K, x1 = 0.6009 | 1260.71 | 1316
308.15 K, x1 = 0.6999 | 1295.11 | 1344.2
308.15 K, x1 = 0.8006 | 1325.68 | 1370
308.15 K, x1 = 0.8492 | 1339.04 | 1381.6
308.15 K, x1 = 0.9008 | 1352.38 | 1393.2
308.15 K, x1 = 0.9501 | 1364.37 | 1403.6
318.15 K, x1 = 0.0501 | 919.88 | 1063.9
318.15 K, x1 = 0.1003 | 965.24 | 1080.1
318.15 K, x1 = 0.1502 | 1006.48 | 1102.3
318.15 K, x1 = 0.2004 | 1044.34 | 1127.3
318.15 K, x1 = 0.3002 | 1110.07 | 1176.5
318.15 K, x1 = 0.4002 | 1164.82 | 1219
318.15 K, x1 = 0.5002 | 1211.35 | 1256.6
318.15 K, x1 = 0.6009 | 1251.69 | 1290.1
318.15 K, x1 = 0.6999 | 1286.31 | 1319.8
318.15 K, x1 = 0.8006 | 1317.07 | 1346.8
318.15 K, x1 = 0.8492 | 1330.51 | 1358.8
318.15 K, x1 = 0.9008 | 1343.92 | 1370.8
318.15 K, x1 = 0.9501 | 1355.98 | 1381.6
328.15 K, x1 = 0.0501 | 907.62 | 1021.3
328.15 K, x1 = 0.1003 | 953.35 | 1039.2
328.15 K, x1 = 0.1502 | 995.07 | 1062.7
328.15 K, x1 = 0.2004 | 1033.39 | 1090
328.15 K, x1 = 0.3002 | 1099.87 | 1143.3
328.15 K, x1 = 0.4002 | 1155.15 | 1189.3
328.15 K, x1 = 0.5002 | 1202.08 | 1229.4
328.15 K, x1 = 0.6009 | 1242.72 | 1264.9
328.15 K, x1 = 0.6999 | 1277.58 | 1296
328.15 K, x1 = 0.8006 | 1308.52 | 1324.1
328.15 K, x1 = 0.8492 | 1322.04 | 1336.5
328.15 K, x1 = 0.9008 | 1335.52 | 1348.9
328.15 K, x1 = 0.9501 | 1347.65 | 1360.1

CCn1cc[n+](C)c1.O=S(=O)([O-])C(F)(F)F [1-ethyl-3-methylimidazolium trifluoromethanesulfonate] + COC(C)=O
Conditions | mass density, 278.15 K [kg/m3] | mass density, 288.15 K [kg/m3] | mass density, 298.15 K [kg/m3] | mass density, 308.15 K [kg/m3] | mass density, 318.15 K [kg/m3] | speed of sound, 278.15 K [m/s] | speed of sound, 288.15 K [m/s] | speed of sound, 298.15 K [m/s] | speed of sound, 308.15 K [m/s] | speed of sound, 318.15 K [m/s]
x1 = 0.0502 | 1010.1 | 997.8 | 985.37 | 972.78 | 960.03 | 1259.8 | 1215.5 | 1171.7 | 1128.2 | 1084.8
x1 = 0.1006 | 1058.3 | 1046.52 | 1034.65 | 1022.69 | 1010.6 | 1278.4 | 1236.5 | 1195.1 | 1153.8 | 1112.8
x1 = 0.1501 | 1099.41 | 1088.09 | 1076.72 | 1065.29 | 1053.78 | 1298.1 | 1258.5 | 1219.4 | 1180.5 | 1141.9
x1 = 0.2001 | 1135.42 | 1124.48 | 1113.53 | 1102.55 | 1091.53 | 1316.6 | 1279.2 | 1242.4 | 1205.9 | 1169.7
x1 = 0.3003 | 1196.62 | 1186.31 | 1176.03 | 1165.76 | 1155.5 | 1350.2 | 1316.6 | 1283.5 | 1250.8 | 1218.7
x1 = 0.3999 | 1243.17 | 1233.3 | 1223.49 | 1213.71 | 1203.97 | 1376.9 | 1346 | 1315.8 | 1285.9 | 1256.7
x1 = 0.4997 | 1281.71 | 1272.18 | 1262.72 | 1253.32 | 1243.97 | 1400 | 1371.2 | 1343 | 1315.5 | 1288.5
x1 = 0.6 | 1313.96 | 1304.71 | 1295.53 | 1286.43 | 1277.38 | 1420.4 | 1393.3 | 1366.8 | 1340.9 | 1315.6
x1 = 0.7 | 1341.07 | 1332.05 | 1323.1 | 1314.23 | 1305.42 | 1438.5 | 1412.7 | 1387.6 | 1362.9 | 1338.9
x1 = 0.7986 | 1363.97 | 1355.14 | 1346.39 | 1337.7 | 1329.08 | 1454.4 | 1429.7 | 1405.6 | 1382 | 1358.9
x1 = 0.8509 | 1374.9 | 1366.17 | 1357.51 | 1348.91 | 1340.38 | 1462.2 | 1438 | 1414.4 | 1391.2 | 1368.6
x1 = 0.9008 | 1384.25 | 1375.61 | 1367.03 | 1358.51 | 1350.04 | 1469.1 | 1445.3 | 1422 | 1399.2 | 1377
x1 = 0.9504 | 1393.09 | 1384.52 | 1376.02 | 1367.58 | 1359.19 | 1475.6 | 1452 | 1429.1 | 1406.7 | 1384.8

From the NIST ThermoML archive (doi:10.1021/je9005618)
